According to publication PMC12084609, “Structural insights into small-molecule agonist recognition and activation of complement receptor C3aR” (The EMBO Journal, 2025):
Substitutions are numbered along the chain they refer to. pIC50: −log10 of the molar value. “And” between values parts separate entries of the source, which are not always exact repeats. Equal values may be shown once.

Key:
[1] = test system: C3aR; set-up: method as in Luo et al, 2025; conditions: HEK293 cells; ref Luo et al, 2025; cited from earlier work
[2] = target: T1, C3aR Y393^6.51A (Homo sapiens, UniProt Q16581, Y393A); experiment: GloSensor-based cAMP assay, C3aR mutant Y393A; type: cell-based
T1 construct: expressed in transfected cells; host or cells: HEK293T
T1 sequence (Q16581 1-482 Y393A): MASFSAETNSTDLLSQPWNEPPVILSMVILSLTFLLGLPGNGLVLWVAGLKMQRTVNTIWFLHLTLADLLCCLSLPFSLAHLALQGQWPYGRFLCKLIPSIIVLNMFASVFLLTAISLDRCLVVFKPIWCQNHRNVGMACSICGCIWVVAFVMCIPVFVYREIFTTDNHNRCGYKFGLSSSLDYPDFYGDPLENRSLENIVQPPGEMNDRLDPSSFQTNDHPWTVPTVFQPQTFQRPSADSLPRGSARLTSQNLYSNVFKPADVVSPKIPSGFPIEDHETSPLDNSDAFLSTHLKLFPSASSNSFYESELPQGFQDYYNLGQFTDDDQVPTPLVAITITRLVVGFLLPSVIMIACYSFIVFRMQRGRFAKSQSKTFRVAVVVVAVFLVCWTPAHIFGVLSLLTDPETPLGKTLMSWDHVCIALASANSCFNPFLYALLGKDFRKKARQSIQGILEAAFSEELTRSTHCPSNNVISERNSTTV
Method: (§1) HEK293T cells were seeded on 6-well plates (NEST) and transfected with pGlosensor™-22F plasmids (Promega) and pcDNA3.1 plasmids encoding C3aR or its mutants an with N-terminal FLAG tag. After 48 h, cells were detached with Accutase solution (Sigma-Aldrich) and washed with PBS, and resuspended in assay buffer (CO2-independent medium with 0.5 mg mL^−1D-luciferin). 100,000–200,000 cells were seeded on 96-well white bottom plates (SPL) and incubated at 37 °C for 45 min followed by 45 min incubation at room temperature. After 90 min of incubation, basal luminescence signals were recorded. In total, 25 μl of test ligand with various concentrations and 1 μM Forskolin (Sigma-Aldrich) were treated to the cells and luminescence signals were measured by Tristar 2 LB 942 multimode reader (Berthold). […] Relative luminescence unit (%) was calculated with the signal of wells treated with vehicle as 0% and the signal of wells treated with 1 μM Forskolin as 100% (DiRaddo et al, [2014]). Nonlinear regression was performed using a three-parameter logistic equation.

[3] = target: T2, C3aR (Homo sapiens, UniProt Q16581); set-up: method as in Luo et al, 2025; conditions: human monocyte THP-1 cells, naturally express C3aR; ref Luo et al, 2025; cited from earlier work
T2 sequence (Q16581 whole entry): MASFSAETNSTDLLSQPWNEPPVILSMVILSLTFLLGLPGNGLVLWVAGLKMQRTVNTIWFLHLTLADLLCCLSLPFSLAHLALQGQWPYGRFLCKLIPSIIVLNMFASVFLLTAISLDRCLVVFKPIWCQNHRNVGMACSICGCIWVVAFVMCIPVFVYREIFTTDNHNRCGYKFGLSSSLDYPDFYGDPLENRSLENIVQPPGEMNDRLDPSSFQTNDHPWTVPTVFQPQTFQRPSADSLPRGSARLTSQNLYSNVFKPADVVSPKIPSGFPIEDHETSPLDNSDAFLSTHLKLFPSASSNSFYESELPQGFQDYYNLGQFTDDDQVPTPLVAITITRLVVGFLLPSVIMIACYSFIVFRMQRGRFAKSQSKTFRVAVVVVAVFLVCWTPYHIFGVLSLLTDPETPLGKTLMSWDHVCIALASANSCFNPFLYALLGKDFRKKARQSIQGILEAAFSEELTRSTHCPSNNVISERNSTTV
T2 sequence (P63096 2-354 partner limits assumed): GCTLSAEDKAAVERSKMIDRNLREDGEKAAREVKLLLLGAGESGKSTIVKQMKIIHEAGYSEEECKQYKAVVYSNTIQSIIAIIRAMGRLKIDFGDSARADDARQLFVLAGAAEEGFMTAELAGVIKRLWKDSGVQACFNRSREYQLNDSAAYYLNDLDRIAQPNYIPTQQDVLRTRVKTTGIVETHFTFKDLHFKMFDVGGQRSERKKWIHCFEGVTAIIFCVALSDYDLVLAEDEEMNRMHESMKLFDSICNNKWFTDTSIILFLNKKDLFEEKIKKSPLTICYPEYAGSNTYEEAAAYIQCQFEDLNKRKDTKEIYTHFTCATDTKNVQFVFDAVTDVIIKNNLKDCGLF
T2 sequence (P62873 2-340 partner limits assumed): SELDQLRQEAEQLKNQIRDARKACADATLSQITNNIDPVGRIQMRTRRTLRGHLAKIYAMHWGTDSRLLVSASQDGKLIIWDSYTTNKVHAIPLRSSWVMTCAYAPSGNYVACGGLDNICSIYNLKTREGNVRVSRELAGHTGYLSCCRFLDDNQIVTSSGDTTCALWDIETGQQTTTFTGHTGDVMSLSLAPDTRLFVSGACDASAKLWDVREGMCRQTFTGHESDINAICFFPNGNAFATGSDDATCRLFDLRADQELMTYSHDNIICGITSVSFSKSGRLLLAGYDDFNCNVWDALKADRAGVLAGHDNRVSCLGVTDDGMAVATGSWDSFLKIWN
T2 sequence (P59768 2-68 partner limits assumed): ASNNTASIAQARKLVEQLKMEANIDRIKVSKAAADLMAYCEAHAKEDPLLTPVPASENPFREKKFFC

[4] = test system: C3aR; set-up: method as in Mathieu et al, 2005; Rodriguez et al, 2024; conditions: blockade of calcium influx attributed to β-arrestin mediated internalization; ref Mathieu et al, 2005; Rodriguez et al, 2024; cited from earlier work
[5] = target: T3, C3aR R340^5.42A (Homo sapiens, UniProt Q16581, R340A); experiment: GloSensor-based cAMP assay, C3aR mutant R340A; type: cell-based
T3 construct: expressed in transfected cells; host or cells: HEK293T
T3 sequence (Q16581 1-482 R340A): T1 sequence (Q16581 1-482 Y393A) with R340A, A393Y
Method: as §1

[6] = target: T4, C3aR R161^ECL2A (Homo sapiens, UniProt Q16581, R161A); experiment: GloSensor-based cAMP assay, C3aR mutant R161A; type: cell-based
T4 construct: expressed in transfected cells; host or cells: HEK293T
T4 sequence (Q16581 1-482 R161A): T1 sequence (Q16581 1-482 Y393A) with R161A, A393Y
Method: as §1

[7] = target: T2, C3aR; set-up: method as in Rowley et al, 2020; conditions: inhibition of C3a-induced calcium release and mast cell degranulation; ref Rowley et al, 2020; cited from earlier work
[8] = Dunnett's multiple comparisons test, WT minus mutant

SMILES: Cc1cc(C(c2ccc(Cl)cc2)c2ccc(Cl)cc2)sc1C(=O)N[C@@H](CCCNC(=N)N)C(=O)O [JR14a, reference compound]
- forskolin-induced cAMP production [1]: inhibited forskolin-induced cAMP production in a dose-dependent manner
- pIC50 ([2]; IC50, Y393^6.51A, dose-response plot): 6.51
- remaining activity at 1 µM ([2]; Y393A, Log[JR14a (M)] -6, single replicates, read-out: cAMP response (% Forskolin)): 21.8%
- remaining activity at 0.1 µM ([2]; Y393A, Log[JR14a (M)] -7, single replicates, read-out: cAMP response (% Forskolin)): 72.2%
- remaining activity at 0.01 µM ([2]; Y393A, Log[JR14a (M)] -8, single replicates, read-out: cAMP response (% Forskolin)): 96.3%
- remaining activity at 0.0001 µM ([2]; Y393A, Log[JR14a (M)] -10, single replicates, read-out: cAMP response (% Forskolin)): 94.3%
- remaining activity at 10 pM ([2]; Y393A, Log[JR14a (M)] -11, single replicates, read-out: cAMP response (% Forskolin)): 93.5%
- pIC50 ([2]; pIC50 (Replicate), Y393^6.51A, individual replicates): 6.51 and 6.40 and 6.58
- pIC50 ([2]; pIC50 ± SEM (Mean), Y393^6.51A, mean of independent experiments): 6.50
- forskolin-induced cAMP production [3]: inhibited forskolin-induced cAMP production in a dose-dependent manner
- activity at C3aR [4]: potent agonist
- Mean Diff. of pIC50, WT vs. R340A [5, 8]: 2.282
- pIC50 ([5]; IC50, R340^5.42A, dose-response plot): 6.32
- remaining activity at 1 µM ([5]; R340A, Log[JR14a (M)] -6, single replicates, read-out: cAMP response (% Forskolin)): 78.9%
- remaining activity at 0.1 µM ([5]; R340A, Log[JR14a (M)] -7, single replicates, read-out: cAMP response (% Forskolin)): 99.9%
- remaining activity at 0.0001 µM ([5]; R340A, Log[JR14a (M)] -10, single replicates, read-out: cAMP response (% Forskolin)): 105%
- remaining activity at 10 pM ([5]; R340A, Log[JR14a (M)] -11, single replicates, read-out: cAMP response (% Forskolin)): 104%
- ΔpIC50 ± SE of Diff. ([5]; R340^5.42A relative to WT C3aR): -2.28 ± 0.14
- pIC50 ([5]; pIC50 ± SEM (Mean), R340^5.42A, mean of independent experiments): 6.27
- Mean Diff. of pIC50, WT vs. R161A [6, 8]: -0.085
- pIC50 ([6]; IC50, R161^ECL2A, dose-response plot, Not calculated = entire loss of signaling): 8.64
- remaining activity at 1 µM ([6]; R161A, Log[JR14a (M)] -6, single replicates, read-out: cAMP response (% Forskolin)): 11.8%
- remaining activity at 0.1 µM ([6]; R161A, Log[JR14a (M)] -7, single replicates, read-out: cAMP response (% Forskolin)): 13.6%
- remaining activity at 0.01 µM ([6]; R161A, Log[JR14a (M)] -8, single replicates, read-out: cAMP response (% Forskolin)): 41.3%
- remaining activity at 0.001 µM ([6]; R161A, Log[JR14a (M)] -9, single replicates, read-out: cAMP response (% Forskolin)): 79.3%
- remaining activity at 0.0001 µM ([6]; R161A, Log[JR14a (M)] -10, single replicates, read-out: cAMP response (% Forskolin)): 99.1%
- remaining activity at 10 pM ([6]; R161A, Log[JR14a (M)] -11, single replicates, read-out: cAMP response (% Forskolin)): 108%
- ΔpIC50 ± SE of Diff. ([6]; R161^ECL2A relative to WT C3aR): 0.09 ± 0.04
- decrease in IC50 values vs WT ([6]; R161^ECL2 to Ala, relatively mild effect on downstream signaling): < 10 fold
- pIC50 ([6]; pIC50 (Replicate), R161^ECL2A, individual replicates): 8.43 and 8.73 and 8.76
- IC50 values [7]: nanomolar range
